The source of these data is the RepoRT retention time repository (doi:10.1016/j.jhazmat.2019.121712).

The data set can be described thus: Thermo Scientific Acclaim RSLC 120 C18, 100 × 2.1 mm, 2.2 µm, 30 °C; A: 90% water + 10% methanol + 0.01% formic acid + 5 mM ammonium formate; B: methanol + 0.01% formic acid + 5 mM ammonium formate; gradient (min/%B) 0.1/1 3/39 14/99.9 16/99.9. As to conditions: stereoisomer not certain.
Consider `COc1cc2c(cc1OC)C13CCN4CC5=CCOC6CC(=O)N2C1C6C5CC43` (stereo unspecified), for which the LC retention time was 4.21 min.

Regarding `CC(C)(C)NCC(O)COc1nsnc1N1CCOCC1` (stereo unspecified), the LC retention time amounted to 4.88 min.

As for `CCS(=O)CCSP(=O)(OC)OC` (stereo unspecified), the LC retention time amounted to 3.98 min.

`CCCc1nn(C)c2c(=O)[nH]c(-c3cc(S(=O)(=O)N4CCN(C)CC4)ccc3OCC)nc12`: the LC retention time was 7.88 min.

Take `O=C1NC(=O)C(c2ccccc2)(c2ccccc2)N1`: the LC retention time was determined as 7.08 min.

As to `CSc1nc2ccccc2s1`, the LC retention time was 9.79 min.

`CC(C)(C)c1ccc(CCOc2ncnc3ccccc23)cc1`: the LC retention time came to 13.7 min.

With `CC(CCc1ccc(O)cc1)NCCc1ccc(O)c(O)c1` (stereo unspecified), the LC retention time came out at 4.21 min.

For `CN1Cc2c(N)cccc2C(c2ccccc2)C1` (stereo unspecified), the LC retention time was found to be 5.42 min.

On to `COc1cc2c(cc1OC)CC(=O)N(CCCN(C)CC1Cc3cc(OC)c(OC)cc31)CC2` (stereo unspecified), for which the LC retention time came out at 5.02 min.

Regarding `CCCS(=O)(=O)c1ccc2nc(NC(=O)OC)[nH]c2c1`, the LC retention time came to 5.86 min.

`O=C1C(CCS(=O)c2ccccc2)C(=O)N(c2ccccc2)N1c1ccccc1` (stereo unspecified): the LC retention time is 7.94 min.

As to `CC(=O)N(C)N(C(=O)C(=O)N(C)C)c1ccccc1`, the LC retention time turned out to be 5.06 min.

For the molecule `CC(C)C(NC(=O)c1nn(CC2CCCCC2)c2ccccc12)C(N)=O` (stereo unspecified), the LC retention time worked out at 11.3 min.

Regarding `CN(CCOc1ccc(CC2SC(=O)NC2=O)cc1)c1ccccn1` (stereo unspecified), the LC retention time was found to be 6.98 min.

With `CCCN1CC(CSC)CC2c3cccc4[nH]cc(c34)CC21` (stereo unspecified), the LC retention time stood at 6.19 min.

`NS(=O)(=O)c1cc(C(=O)O)cc(N2CCCC2)c1Oc1ccccc1`: the LC retention time came to 7.17 min.

Consider `O=C(Oc1cccc2cccnc12)c1cn(CC2CCCCC2)c2ccccc12`, for which the LC retention time was found to be 12.4 min.

On to `CN1CCC(=C2c3ccccc3CCc3sccc32)CC1`, for which the LC retention time was found to be 7.86 min.

As for `Nc1ccc(S(=O)(=O)Nc2nccs2)cc1`, the LC retention time is 3.63 min.

`COc1ccc(-c2oc3c(CC=C(C)C)c(OC4OC(CO)C(O)C(O)C4O)cc(O)c3c(=O)c2OC2OC(C)C(O)C(O)C2O)cc1` (stereo unspecified): the LC retention time amounted to 8.24 min.

Take `CCCCC1(COC(=O)CCC(=O)O)C(=O)N(c2ccccc2)N(c2ccccc2)C1=O`: the LC retention time came to 9.61 min.

Turning to `CN1CCCN=C1COC(=O)C(O)(c1ccccc1)C1CCCCC1` (stereo unspecified), the LC retention time came to 7.98 min.

Turning to `CNCCC(c1ccccc1)c1ccccn1` (stereo unspecified), the LC retention time was 5.79 min.

Regarding `CCC(=O)OC(Cc1ccccc1)(c1ccccc1)C(C)CNC` (stereo unspecified), the LC retention time is 7.84 min.

In the case of `Cn1c([N+](=O)[O-])cnc1COC(N)=O`, the LC retention time is 3.55 min.

Turning to `COc1ncnc(NS(=O)(=O)c2ccc(N)cc2)c1OC`, the LC retention time came to 4.75 min.

In the case of `NC(=O)c1cc[n+](CC2=C(C(=O)[O-])N3C(=O)C(NC(=O)Cc4cccs4)C3SC2)cc1` (stereo unspecified), the LC retention time was 4.03 min.

Consider `CCN(CC)C(C)C(=O)c1ccccc1` (stereo unspecified), for which the LC retention time turned out to be 4.11 min.

As to `CC(=O)OC1CN2CCC1CC2` (stereo unspecified), the LC retention time came out at 4.87 min.

On to `CCCOc1ccc(S(=O)(=O)N2CCN(CCO)CC2)cc1-c1nc2c(CCC)cn(CC)c2c(=O)[nH]1`, for which the LC retention time came to 9.49 min.

Consider `COc1ccc(C(O)(c2cncnc2)C2CC2)cc1` (stereo unspecified), for which the LC retention time stood at 7.15 min.

Take `CCOc1c(N)c2c(c(OCC)c1OCC)C(C1c3c(cc4c(c3OC)OCO4)CCN1C)OC2=O` (stereo unspecified): the LC retention time was found to be 12 min.

In the case of `CC1CCCCC1NC(=O)Nc1ccccc1` (stereo unspecified), the LC retention time came to 9.37 min.

Turning to `COc1cc(CCN)c(OC)cc1C`, the LC retention time came out at 5.34 min.

As for `CCOc1cc(NC(C)=O)ccc1C(=O)OC`, the LC retention time stood at 6.63 min.

For the molecule `CC1C(=O)OC2CCN3CC=C(COC(=O)C(C)(O)C1(C)O)C23` (stereo unspecified), the LC retention time is 2.92 min.

Take `CC(=O)Oc1cccc2[nH]cc(CCN(C(C)C)C(C)C)c12`: the LC retention time was found to be 4.88 min.

With `CNC(=O)ON=C(C)C(C)SC` (stereo unspecified), the LC retention time was found to be 6.07 min.

`CC(C)(C)NCC(O)COc1cccc2c1SCCC2` (stereo unspecified): the LC retention time is 6.76 min.

Consider `CSC(=O)c1cccc2nnsc12`, for which the LC retention time is 9.65 min.

As to `COCCCOc1ccnc(CS(=O)c2nc3ccccc3[nH]2)c1C` (stereo unspecified), the LC retention time was 7.52 min.

For `CC=C1CC(C)C(O)(CO)C(=O)OCC2=CCN3CCC(OC1=O)C23` (stereo unspecified), the LC retention time turned out to be 4.01 min.

Take `CC(C)C1(C)N=C(c2ncccc2C(=O)O)NC1=O` (stereo unspecified): the LC retention time is 4.1 min.

Regarding `CN1CCC(=C2c3ccccc3CC(=O)c3sccc32)CC1`, the LC retention time is 5.54 min.

Consider `CCCOP(=S)(OCCC)OP(=S)(OCCC)OCCC`, for which the LC retention time was 12.9 min.

On to `CC#CCn1c(N2CCCC(N)C2)nc2c1c(=O)n(Cc1nc(C)c3ccccc3n1)c(=O)n2C` (stereo unspecified), for which the LC retention time turned out to be 6.01 min.

In the case of `NC(=O)N=C(N)N`, the LC retention time turned out to be 1.31 min.

Regarding `COc1ccc2[nH]cc(CCNC(C)=O)c2c1`, the LC retention time amounted to 5.36 min.

Take `CN(C(=O)COc1nc2ccccc2s1)c1ccccc1`: the LC retention time worked out at 9.83 min.

As for `O=C(Nc1ccccc1)Nc1cnns1`, the LC retention time amounted to 7.17 min.

Regarding `O=C1NCC(=O)N2C1Cc1c([nH]c3ccccc13)C2c1ccc2c(c1)OCO2` (stereo unspecified), the LC retention time was determined as 7.99 min.

As for `CNC(=O)CSP(=S)(OC)OC`, the LC retention time was found to be 5.23 min.

As to `C[N+](C)([O-])CCC(c1ccccc1)c1ccccn1` (stereo unspecified), the LC retention time came to 5.39 min.

As to `CC1C=CC=CCCC=CC=CC=CC=CC(OC2OC(C)C(O)C(N)C2O)CC2OC(O)(CC(O)C(O)CCC(O)CC(O)CC(O)CC(=O)OC(C)C(C)C1O)CC(O)C2C(=O)O` (stereo unspecified), the LC retention time was determined as 10.3 min.

In the case of `Cc1ccc(N=Nc2c(O)ccc3ccccc23)c(C)c1`, the LC retention time worked out at 14.9 min.

For `CCCCn1cc(C(=O)c2cccc3ccccc23)c2cc(O)ccc21`, the LC retention time is 11.3 min.

For the molecule `Cc1nccc2c1[nH]c1ccccc12`, the LC retention time worked out at 4.91 min.

As to `N=C(N)N1CCc2ccccc2C1`, the LC retention time came to 4.39 min.

Consider `CCCCNC(=O)NS(=O)(=O)c1ccc(C)cc1`, for which the LC retention time worked out at 7.68 min.

Take `Cc1cc2c(s1)Nc1ccccc1N=C2N1CCN(C)CC1`: the LC retention time was found to be 4.99 min.

For the molecule `CCCc1nn(C)c2c(=O)[nH]c(-c3cc(C(=O)CN4CCN(CC)CC4)ccc3OCC)nc12`, the LC retention time worked out at 7.01 min.

On to `CC(C)(C)NCC(O)COc1ccccc1C#N` (stereo unspecified), for which the LC retention time was found to be 4.66 min.

As to `CCN(CC)CCOC(=O)C(O)(c1ccccc1)c1ccccc1`, the LC retention time turned out to be 6.08 min.

With `COC1CC(CC2CCC(C)C(C(C)C(=O)O)O2)OC2(OC(C)(C3CCC(C)(C4OC(C5OC(O)(CO)C(C)CC5C)CC4C)O3)CC2C)C1C` (stereo unspecified), the LC retention time was determined as 13.9 min.

For the molecule `C#CC1(OC(C)=O)CCC2C3CCC4=CC(=O)CCC4C3CCC21C` (stereo unspecified), the LC retention time was 10.8 min.

On to `CCSC(=O)N(CC(C)C)CC(C)C`, for which the LC retention time is 12 min.

For the molecule `CCCC(C(=O)c1ccccc1)N1CCCC1` (stereo unspecified), the LC retention time worked out at 5.08 min.

`CNC(C)Cc1ccc(O)c(O)c1` (stereo unspecified): the LC retention time was determined as 2.59 min.

As for `CNC(C)Cc1cccs1` (stereo unspecified), the LC retention time worked out at 3.69 min.

As for `Cc1cc(C2CC2)nc(Nc2ccccc2)n1`, the LC retention time amounted to 11 min.

Consider `CC(C(O)c1ccccc1)N(C)C` (stereo unspecified), for which the LC retention time was 3.73 min.

`Cc1occc1C(=O)Nc1ccccc1`: the LC retention time amounted to 7.59 min.

`CCOP(=S)(OCC)Oc1cc(C)nc(N(CC)CC)n1`: the LC retention time turned out to be 12.3 min.

As for `CCNc1nc(NC(C)(C)C)nc(OC)n1`, the LC retention time is 9.16 min.

Take `CCc1cccc(C)c1N(C(=O)CS(=O)(=O)O)C(C)COC` (stereo unspecified): the LC retention time amounted to 7.34 min.

As to `COC(=O)C1=C(C)NC(C)=C(C(=O)OC(C)(C)CN(C)CCC(c2ccccc2)c2ccccc2)C1c1cccc([N+](=O)[O-])c1` (stereo unspecified), the LC retention time was determined as 11.1 min.

Regarding `CCC(C)c1ccccc1OC(=O)NC` (stereo unspecified), the LC retention time came to 9.05 min.

Take `CCCCCn1cc(C(=O)c2ccccc2OC)c2ccccc21`: the LC retention time came to 11.2 min.

For `CCOc1ccccc1C(N)=O`, the LC retention time was 5.68 min.

With `CCOP(=O)(SC(C)CC)N1CCSC1=O` (stereo unspecified), the LC retention time is 7.73 min.

With `COCc1cnc(C2=NC(C)(C(C)C)C(=O)N2)c(C(=O)O)c1` (stereo unspecified), the LC retention time is 4.63 min.

As to `CNC(=C[N+](=O)[O-])NCCSCc1csc(CN(C)C)n1`, the LC retention time was 2.96 min.

In the case of `O=C(c1ccccc1)c1ccc2n1CCC2C(=O)O` (stereo unspecified), the LC retention time amounted to 6.94 min.

With `CC(C)N(Cc1ccccc1)C(=O)C(C)(C)C`, the LC retention time came out at 10.2 min.

On to `CNCCC=C1c2ccccc2CCc2ccccc21`, for which the LC retention time amounted to 8.51 min.

Regarding `CC(O)Cn1cnc2c1c(=O)n(C)c(=O)n2C` (stereo unspecified), the LC retention time is 4.34 min.

Regarding `CCCCCCCCc1ccc(OCCOCCO)cc1`, the LC retention time turned out to be 14.1 min.

For the molecule `CNC(=O)Oc1cccc(N=CN(C)C)c1`, the LC retention time was 3.14 min.

Consider `CNCCN1C(=O)C(OC(C)=O)C(c2ccc(OC)cc2)Sc2ccccc21` (stereo unspecified), for which the LC retention time was found to be 7.21 min.

For `CCCc1nn(C)c2c(=O)[nH]c(-c3cc(C(=O)CN4CCN(CC)C(=O)C4)ccc3OCC)nc12`, the LC retention time came to 9.09 min.

Take `CNC(=N[N+](=O)[O-])NCC1CCOC1` (stereo unspecified): the LC retention time amounted to 3.59 min.

For the molecule `CCCCCn1cc(C(=O)c2cccc3ccccc23)c2ccc(O)cc21`, the LC retention time was determined as 11.2 min.

Take `CCCSc1ccc2nc(NC(=O)OC)[nH]c2c1`: the LC retention time was 9.19 min.

Turning to `O=C(O)c1cc(N=Nc2ccc(O)c(C(=O)O)c2)ccc1O`, the LC retention time was found to be 5.66 min.

Turning to `CCCc1nn(C)c2c(=S)nc(-c3cc(C(=S)N4CCN(C)CC4)ccc3OCC)[nH]c12`, the LC retention time was determined as 11.5 min.
